Common to all, as to experiment: biochemical
What all share (set-up): Eurofins KinaseProfiler full panel at Km ATP, residual kinase activity (%) relative to DMSO

In assay [1] the target is BTK(R28H)(h) (Homo sapiens, UniProt Q06187, R28H). The essentials: (§1)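 Compounds screened at 10 µM in radiometric kinase activity assays at Km ATP, reported as remaining kinase activity (%). A KINOMEscan competition-binding screen at 10 µM measured DNA-tagged kinase retained on immobilized active-site ligand by qPCR.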
Chain of BTK(R28H)(h) (Q06187 whole entry R28H): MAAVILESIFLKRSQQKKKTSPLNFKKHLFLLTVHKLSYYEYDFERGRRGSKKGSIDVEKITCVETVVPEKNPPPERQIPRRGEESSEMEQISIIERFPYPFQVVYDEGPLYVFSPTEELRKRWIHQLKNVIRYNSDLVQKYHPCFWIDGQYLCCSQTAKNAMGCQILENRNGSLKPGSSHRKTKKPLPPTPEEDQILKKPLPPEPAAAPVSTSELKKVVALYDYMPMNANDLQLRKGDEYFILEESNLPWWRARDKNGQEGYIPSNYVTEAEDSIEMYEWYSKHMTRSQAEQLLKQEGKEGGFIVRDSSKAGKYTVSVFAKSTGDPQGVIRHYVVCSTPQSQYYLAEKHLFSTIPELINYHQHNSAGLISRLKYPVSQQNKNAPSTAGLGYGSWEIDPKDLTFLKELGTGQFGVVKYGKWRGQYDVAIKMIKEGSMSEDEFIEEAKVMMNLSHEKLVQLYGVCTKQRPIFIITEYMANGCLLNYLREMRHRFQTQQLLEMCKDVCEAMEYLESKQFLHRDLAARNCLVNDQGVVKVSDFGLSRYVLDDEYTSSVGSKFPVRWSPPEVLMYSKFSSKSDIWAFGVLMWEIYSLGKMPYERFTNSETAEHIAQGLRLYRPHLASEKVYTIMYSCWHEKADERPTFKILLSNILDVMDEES
Assay [2] has as its target DYRK1B(h) (Homo sapiens, UniProt Q9Y463). The essentials: as §1
In assay [3] the target is EGFR(L858R)(h) (Homo sapiens, UniProt P00533, L858R). The essentials: as §1
Chain of EGFR(L858R)(h) (P00533 whole entry L858R): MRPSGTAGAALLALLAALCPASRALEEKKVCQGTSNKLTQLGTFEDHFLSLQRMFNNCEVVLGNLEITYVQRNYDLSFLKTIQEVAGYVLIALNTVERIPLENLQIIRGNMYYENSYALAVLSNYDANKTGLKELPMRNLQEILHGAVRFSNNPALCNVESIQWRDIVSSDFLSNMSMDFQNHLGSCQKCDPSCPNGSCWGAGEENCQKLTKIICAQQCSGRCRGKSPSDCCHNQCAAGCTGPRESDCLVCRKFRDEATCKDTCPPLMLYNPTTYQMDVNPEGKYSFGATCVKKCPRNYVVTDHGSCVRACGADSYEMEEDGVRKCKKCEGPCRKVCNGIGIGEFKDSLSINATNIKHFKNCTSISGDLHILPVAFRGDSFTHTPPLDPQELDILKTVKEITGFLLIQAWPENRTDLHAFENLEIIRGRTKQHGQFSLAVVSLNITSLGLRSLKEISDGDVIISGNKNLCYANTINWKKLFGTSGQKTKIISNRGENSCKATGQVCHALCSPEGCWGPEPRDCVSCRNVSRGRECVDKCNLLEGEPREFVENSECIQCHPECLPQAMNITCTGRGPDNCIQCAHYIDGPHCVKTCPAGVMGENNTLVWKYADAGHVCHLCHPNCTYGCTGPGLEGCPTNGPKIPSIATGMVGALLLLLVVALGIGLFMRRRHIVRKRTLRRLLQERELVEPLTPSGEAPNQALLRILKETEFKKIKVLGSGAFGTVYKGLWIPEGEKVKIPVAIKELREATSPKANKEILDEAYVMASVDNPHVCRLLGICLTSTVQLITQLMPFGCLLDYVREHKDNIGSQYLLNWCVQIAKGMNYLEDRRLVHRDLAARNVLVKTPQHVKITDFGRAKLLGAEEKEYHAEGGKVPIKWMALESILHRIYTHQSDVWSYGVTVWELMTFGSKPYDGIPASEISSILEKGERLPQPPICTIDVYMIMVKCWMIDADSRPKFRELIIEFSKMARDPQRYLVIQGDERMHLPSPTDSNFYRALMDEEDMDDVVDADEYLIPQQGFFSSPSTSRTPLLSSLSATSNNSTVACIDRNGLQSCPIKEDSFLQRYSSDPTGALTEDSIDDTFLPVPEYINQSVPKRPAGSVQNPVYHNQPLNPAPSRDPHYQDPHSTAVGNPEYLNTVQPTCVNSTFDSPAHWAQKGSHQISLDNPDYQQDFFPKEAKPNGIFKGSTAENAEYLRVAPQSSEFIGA
Assay [4] concerns the target T1, BrSK2(h) (Homo sapiens, UniProt Q8IWQ3).
T1 sequence (Q8IWQ3 1-736): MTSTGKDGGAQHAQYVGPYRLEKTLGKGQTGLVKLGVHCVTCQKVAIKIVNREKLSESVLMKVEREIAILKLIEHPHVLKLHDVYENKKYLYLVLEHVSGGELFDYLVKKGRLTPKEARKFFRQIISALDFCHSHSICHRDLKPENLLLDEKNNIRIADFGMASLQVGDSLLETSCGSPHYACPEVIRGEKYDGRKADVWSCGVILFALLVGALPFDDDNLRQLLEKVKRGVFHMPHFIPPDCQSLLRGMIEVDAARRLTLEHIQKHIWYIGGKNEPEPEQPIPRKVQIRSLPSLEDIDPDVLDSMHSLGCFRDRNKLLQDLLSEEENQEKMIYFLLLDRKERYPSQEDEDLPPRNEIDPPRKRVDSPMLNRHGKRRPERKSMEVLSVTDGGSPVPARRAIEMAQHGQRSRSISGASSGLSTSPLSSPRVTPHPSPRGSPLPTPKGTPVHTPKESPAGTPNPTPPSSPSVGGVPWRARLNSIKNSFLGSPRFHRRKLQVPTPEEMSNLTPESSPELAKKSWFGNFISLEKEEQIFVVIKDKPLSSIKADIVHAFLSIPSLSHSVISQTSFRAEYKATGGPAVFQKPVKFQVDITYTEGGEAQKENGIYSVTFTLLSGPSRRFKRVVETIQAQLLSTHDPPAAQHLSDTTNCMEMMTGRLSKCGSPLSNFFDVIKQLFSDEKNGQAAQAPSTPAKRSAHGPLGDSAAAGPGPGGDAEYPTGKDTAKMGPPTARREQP
The essentials:
as §1

Assay [5] addresses T2, Pyk2(h) (Homo sapiens, UniProt Q14289).
T2 construct: gene PTK2B
The essentials: as §1

Assay [6] has as its target DAPK1(h) (Homo sapiens, UniProt P53355). In a few lines:
as §1

The target in assay [7] is T3, GSK3α(h) (Homo sapiens, UniProt P49840).
T3 construct: gene GSK3A
T3 sequence (P49840 whole entry): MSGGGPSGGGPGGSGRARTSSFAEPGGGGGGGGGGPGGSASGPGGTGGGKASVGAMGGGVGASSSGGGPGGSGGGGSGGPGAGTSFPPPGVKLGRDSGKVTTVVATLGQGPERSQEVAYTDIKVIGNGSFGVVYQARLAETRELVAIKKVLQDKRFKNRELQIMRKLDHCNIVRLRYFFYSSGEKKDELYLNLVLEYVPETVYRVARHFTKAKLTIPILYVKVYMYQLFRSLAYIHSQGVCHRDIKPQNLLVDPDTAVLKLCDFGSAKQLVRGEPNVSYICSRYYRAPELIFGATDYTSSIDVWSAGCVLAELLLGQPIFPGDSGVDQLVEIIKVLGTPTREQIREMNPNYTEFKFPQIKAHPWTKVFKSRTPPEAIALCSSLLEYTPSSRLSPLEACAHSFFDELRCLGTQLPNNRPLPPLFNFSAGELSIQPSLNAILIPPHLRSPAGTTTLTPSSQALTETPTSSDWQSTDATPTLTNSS
In a few lines: as §1

Assay [8] deals with T4, MKK6(h) (Homo sapiens, UniProt P52564).
T4 construct: gene MAP2K6
T4 sequence (P52564 1-334): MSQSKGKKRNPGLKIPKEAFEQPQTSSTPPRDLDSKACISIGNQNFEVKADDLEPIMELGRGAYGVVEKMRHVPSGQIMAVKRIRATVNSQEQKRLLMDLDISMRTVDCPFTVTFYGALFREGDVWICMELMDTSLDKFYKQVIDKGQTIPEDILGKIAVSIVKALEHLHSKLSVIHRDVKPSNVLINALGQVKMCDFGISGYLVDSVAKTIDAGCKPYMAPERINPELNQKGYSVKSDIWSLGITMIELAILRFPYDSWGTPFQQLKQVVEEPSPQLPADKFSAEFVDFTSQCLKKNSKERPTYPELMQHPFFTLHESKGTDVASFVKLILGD
The essentials: as §1

Assay [9] addresses T5, CaMKIIδ(h) (Homo sapiens, UniProt Q13557).
T5 construct: gene CAMK2D
The essentials:
as §1

Setting [10] is: read-out: Residual activity (%) 5at.
The mark [11] stands for this setting: read-out: Residual activity (%) 5ay.
Setting [12] is: read-out: Residual activity (%) 5as.
[13] abbreviates: read-out: Residual activity (%) Spautin-1 5aa.

Data on 4 compounds can be found in publication PMC7827406, “Structure–Activity Relationship (SAR) Study of Spautin-1 to Entail the Discovery of Novel NEK4 Inhibitors” (International Journal of Molecular Sciences, 2021).

Read-outs that look alike come from different tables or passages of the source.

T5 sequence (Q13557 whole entry): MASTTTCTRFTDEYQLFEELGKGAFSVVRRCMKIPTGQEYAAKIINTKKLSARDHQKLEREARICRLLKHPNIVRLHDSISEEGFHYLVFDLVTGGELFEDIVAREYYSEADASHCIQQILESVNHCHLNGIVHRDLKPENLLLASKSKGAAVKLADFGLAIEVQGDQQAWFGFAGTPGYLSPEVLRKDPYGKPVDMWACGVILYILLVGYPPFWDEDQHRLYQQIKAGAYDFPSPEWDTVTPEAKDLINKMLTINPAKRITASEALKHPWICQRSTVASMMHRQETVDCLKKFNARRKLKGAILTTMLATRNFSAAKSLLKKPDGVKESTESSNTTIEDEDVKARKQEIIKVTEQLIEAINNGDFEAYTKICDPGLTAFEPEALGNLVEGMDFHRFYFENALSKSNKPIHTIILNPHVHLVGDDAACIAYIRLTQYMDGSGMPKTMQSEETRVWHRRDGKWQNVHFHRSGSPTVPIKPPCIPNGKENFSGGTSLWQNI
Chain of DYRK1B(h) (Q9Y463 whole entry): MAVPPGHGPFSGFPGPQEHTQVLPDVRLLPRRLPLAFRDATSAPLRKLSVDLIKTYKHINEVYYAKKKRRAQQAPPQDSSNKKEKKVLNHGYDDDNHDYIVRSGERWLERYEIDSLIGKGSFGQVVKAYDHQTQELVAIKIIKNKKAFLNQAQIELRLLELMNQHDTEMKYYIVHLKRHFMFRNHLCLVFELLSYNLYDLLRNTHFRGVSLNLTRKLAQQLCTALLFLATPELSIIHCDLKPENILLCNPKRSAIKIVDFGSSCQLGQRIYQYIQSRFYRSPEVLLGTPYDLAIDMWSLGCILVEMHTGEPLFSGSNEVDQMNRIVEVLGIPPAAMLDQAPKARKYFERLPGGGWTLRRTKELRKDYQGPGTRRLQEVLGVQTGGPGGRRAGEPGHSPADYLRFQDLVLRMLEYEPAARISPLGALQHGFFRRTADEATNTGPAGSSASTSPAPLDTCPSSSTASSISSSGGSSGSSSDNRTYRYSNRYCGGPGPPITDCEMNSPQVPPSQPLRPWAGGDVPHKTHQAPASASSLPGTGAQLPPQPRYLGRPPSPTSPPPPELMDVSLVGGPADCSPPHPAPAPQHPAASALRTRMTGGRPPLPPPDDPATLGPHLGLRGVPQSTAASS
Chain of DAPK1(h) (P53355 whole entry): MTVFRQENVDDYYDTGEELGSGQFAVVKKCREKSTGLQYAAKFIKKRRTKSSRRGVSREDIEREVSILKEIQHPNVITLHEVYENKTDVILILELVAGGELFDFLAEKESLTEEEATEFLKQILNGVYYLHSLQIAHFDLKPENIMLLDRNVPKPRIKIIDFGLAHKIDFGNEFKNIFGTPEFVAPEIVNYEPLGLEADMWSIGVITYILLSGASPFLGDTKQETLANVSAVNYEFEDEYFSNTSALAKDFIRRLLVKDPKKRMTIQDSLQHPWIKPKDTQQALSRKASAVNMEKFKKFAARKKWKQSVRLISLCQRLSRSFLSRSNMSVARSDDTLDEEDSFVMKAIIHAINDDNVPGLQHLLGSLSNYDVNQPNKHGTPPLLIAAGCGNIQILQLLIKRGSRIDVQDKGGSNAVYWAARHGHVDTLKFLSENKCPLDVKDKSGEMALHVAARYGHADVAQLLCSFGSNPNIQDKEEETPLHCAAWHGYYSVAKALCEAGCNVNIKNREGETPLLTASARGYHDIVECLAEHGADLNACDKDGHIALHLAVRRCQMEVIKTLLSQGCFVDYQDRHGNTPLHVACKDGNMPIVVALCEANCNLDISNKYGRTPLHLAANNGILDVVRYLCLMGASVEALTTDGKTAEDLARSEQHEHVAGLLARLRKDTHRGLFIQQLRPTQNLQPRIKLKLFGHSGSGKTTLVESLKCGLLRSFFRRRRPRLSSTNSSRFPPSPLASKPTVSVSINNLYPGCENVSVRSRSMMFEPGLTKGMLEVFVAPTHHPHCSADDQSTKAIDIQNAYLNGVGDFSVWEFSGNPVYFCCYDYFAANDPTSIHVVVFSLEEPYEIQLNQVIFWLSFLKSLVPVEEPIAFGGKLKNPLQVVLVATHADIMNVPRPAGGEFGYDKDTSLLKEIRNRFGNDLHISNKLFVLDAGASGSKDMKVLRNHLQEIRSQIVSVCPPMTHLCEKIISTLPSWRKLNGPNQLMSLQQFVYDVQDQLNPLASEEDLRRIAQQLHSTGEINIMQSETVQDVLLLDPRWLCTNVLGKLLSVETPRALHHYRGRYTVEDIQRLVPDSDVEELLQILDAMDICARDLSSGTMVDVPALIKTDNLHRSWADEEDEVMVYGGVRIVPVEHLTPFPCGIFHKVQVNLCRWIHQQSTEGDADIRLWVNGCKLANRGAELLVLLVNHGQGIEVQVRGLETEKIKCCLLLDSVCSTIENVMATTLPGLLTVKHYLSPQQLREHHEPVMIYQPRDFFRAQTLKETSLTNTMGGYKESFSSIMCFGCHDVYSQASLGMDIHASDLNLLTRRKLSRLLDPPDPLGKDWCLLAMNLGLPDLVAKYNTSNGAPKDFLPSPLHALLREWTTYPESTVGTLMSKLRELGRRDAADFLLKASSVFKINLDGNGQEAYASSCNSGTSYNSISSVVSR

As for `Fc1ccc2ncnc(NCCc3ccc(Cl)cc3)c2c1` [5at, N-[2-(4-Chlorophenyl)Ethyl]-6-Fluoro-4-Quinazolinamine], the remaining activity at 10 µM was found to be 101% in assay [1] (setting [10]); 92% in [2] (setting [10]); 60% in [3] (setting [10]); 71% in assay [4] (setting [10]); 69% in [5] (setting [10]); 89% in assay [6] (setting [10]). Moreover, the values for the remaining activity at 10 µM in assay [7] (setting [10]), in assay [8] (setting [10]) and in assay [9] (setting [10]) were 102%, 95% and 77%, respectively.
As for `COc1ccc2ncnc(Nc3cccc(F)c3)c2c1` [5ay, N-(3-Fluorophenyl)-6-Methoxy-4-Quinazolinamine], the remaining activity at 10 µM in assay [1] (setting [11]) was 103%; in assay [2] (setting [11]), 53%; in [3] (setting [11]) it was 3%; in [4] (setting [11]) it was 42%; in assay [5] (setting [11]), 72%; in assay [6] (setting [11]), 95%. Also, the remaining activity at 10 µM was found to be 69% in [7] (setting [11]), 74% in [8] (setting [11]) and 41% in [9] (setting [11]).
As for `Fc1ccc(CCNc2ncnc3ccc(F)cc23)cc1` [5as, 6-Fluoro-N-[2-(4-Fluorophenyl)Ethyl]-4-Quinazolinamine], the remaining activity at 10 µM came out at 103% in assay [1] (setting [12]); 82% in [2] (setting [12]); 37% in assay [3] (setting [12]); 65% in [4] (setting [12]); 74% in assay [5] (setting [12]); 90% in [6] (setting [12]). The remaining activity at 10 µM is 101% in [7] (setting [12]), 84% in assay [8] (setting [12]) and 79% in assay [9] (setting [12]).
Take `Fc1ccc(CNc2ncnc3ccc(F)cc23)cc1` [5aa, 6-Fluoro-N-(4-fluorobenzyl)-4-Quinazolinamine]: the remaining activity at 10 µM in assay [1] (setting [13]) was 88%; in [2] (setting [13]) it was 88%; in assay [3] (setting [13]), 23%; in [4] (setting [13]) it was 79%; in assay [5] (setting [13]), 86%; in assay [6] (setting [13]), 102%. Further, the remaining activity at 10 µM in assay [7] (setting [13]) came to 93%; in [8] (setting [13]) it was 78%; in assay [9] (setting [13]), 90%.
